Data from PMC3517478 (BMC Neurology, 2012).
Residue numbers refer to the chain shown, from its start.

Experiments:
[1] = target: T1, human α1S267I-GlyR expressed in HEK 293 cells (Homo sapiens, UniProt P23415, S295I); settings: S267I
T1 sequence (P23415 29-457 S295I): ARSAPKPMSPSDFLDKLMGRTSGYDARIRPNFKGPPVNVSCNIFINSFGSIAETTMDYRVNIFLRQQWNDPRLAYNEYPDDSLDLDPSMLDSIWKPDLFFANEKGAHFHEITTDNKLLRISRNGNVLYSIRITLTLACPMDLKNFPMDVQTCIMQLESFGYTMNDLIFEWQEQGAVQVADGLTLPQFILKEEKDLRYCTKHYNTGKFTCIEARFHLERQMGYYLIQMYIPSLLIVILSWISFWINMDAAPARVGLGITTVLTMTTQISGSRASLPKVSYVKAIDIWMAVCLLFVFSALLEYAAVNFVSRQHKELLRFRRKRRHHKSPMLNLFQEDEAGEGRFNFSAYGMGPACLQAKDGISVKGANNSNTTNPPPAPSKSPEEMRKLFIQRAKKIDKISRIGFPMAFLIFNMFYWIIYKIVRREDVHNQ
Source text: (§1) Human α1-, α1R271Q-, α1R271L-, α1R271K and α1S267I-GlyR subunits were transiently transfected into human embryonic kidney cells (HEK 293, ATCC, Manassas, USA). The wild type α1-GlyR -cDNA was cloned in pCIS2 (Invitrogen, San Diego, USA) vector and provided by Prof. Heinrich Betz (Max-Planck-Institut für Hirnforschung, Frankfurt am Main, Germany). For the plasmid cDNA of the mutated α1R271Q-, α1R271L-, α1R271K- and α1S267I-GlyR the eukaryotic expression vector pcDNA1amp (Invitrogen, San Diego, USA), under the control of cytomegalovirus promoter, was used. For site-directed mutagenesis, single stranded template cDNA was synthesized from M13 origin of replication and the mutations of arginine residue (R) at position 271 to glutamine (R271Q), leucine (R271L) or lysine (R271K) and mutation of serine residue (S) at position 267 to isoleucine (S267I) were generated using standard procedures. […] Wild type and mutated α1-GlyR subunits efficiently form homomeric receptors in heterologous expression systems.
(§2) HEK 293 cells were cultured in medium containing HAMS’F-12 (Biochrom, Berlin, Germany), supplemented with 10% fetal bovine serum (FBS, Biochrom, Berlin, Germany), 100 U ml^–1 penicillin and 100μgml^–1 streptomycin (Gibco BRL, Life Technologies, Karlsruhe, Germany) at 37°C in a 5% CO2/ 95% air incubator. For transfection cells were suspended in a buffer containing 50mM K2HPO4 (Fluka BioChemika, Seelze, Germany), 20mMK-acetate (Sigma-Aldrich, Taufkirchen, Germany) and 25mM MgSO4 (Sigma-Aldrich, Taufkirchen, Germany) at pH 7.35. To visualize transfected cells, they were co-transfected with cDNA encoding for enhanced green fluorescent protein (EGFP) contained in the pEGFP-N1 expression vector (Clontech, Palo Alto, USA). The corresponding cDNA (5μg for the GlyR and 2.5μg for EGFP) was added to 400μl of the cell suspension and the mixture was rapidly transferred into the electroporation cuvette. For transfection we used an electroporation device by EquiBio (Kent, UK) and a 4mm aluminum electrode electroporation cuvette (Peqlab, Erlangen, Germany).
(§3) The phenol derivative 4-chloropropofol ([…]) was provided as pure substance by Prof. Paul M. O’Neill (University of Liverpool, England), prepared as light-protected 1M stock solution in ethanol (EtOH, J.T.Baker, Griesheim, Germany) and stored in glass vessels at −20°C.
(§4) Drug-containing vials were vigorously vortexed for 30min. Patch electrodes were filled with an intracellular solution of [mM] KCl 140, MgCl2 2, EGTA 11, HEPES 10, glucose 11, CaCl2 1 with pH 7.3, adjusted with 1 M KOH and a bath solution contained [mM] NaCl 162, KCl 5.31, NaHPO4 0.85, KH2PO4 0.22, HEPES 15, glucose 6.11, pH 7.4 adjusted with 1 M NaOH. Osmolarity of both solutions was set at 280–300 mOsmol.
(§5) Whole-cell experiments were performed at a holding potential of −30 mV with a mean seal resistance of 1 GΩ. […] A fast liquid filament switch technique was used for the application of the agonist, presented in pulses of 2 s duration every 20 s. The liquid filament switch technique is able to exchange the solution passing an outside-out patch or small whole-cells within 1–2 ms. We calculated flow rate of background solution through the chamber with 3,4 ml/min corresponding to 4% of maximal pump rate. With regard to the chamber volume of 100 μl the exchange solution time within the chamber was assessed to approximately […], dependent on cell size accordingly. Piezo-switch and small diameter capillary (ID 0.15 mm) within the measurement chamber promoted the millisecond solution exchange. […] The induced current (I) by this saturating control solution was defined as Icontrol. […] The stability of the seal was controlled during the complete experiment via control of the seal resistance. A variation of 10-20% of the basic value was regarded as tolerable.

[2] = target: T2, human α1R271K-GlyR expressed in HEK 293 cells (Homo sapiens, UniProt P23415, R299K); settings: R271K
T2 sequence (P23415 29-457 R299K): T1 sequence (P23415 29-457 S295I) with I267S, R271K
Source text: as §1, §2, §3, §4, §5

[3] = 10-90% of Imax, monoexponential fit

## NCC(=O)O [glycine]
[1]
  Current amplitude [% of mean WT current amplitude] ± SEM: 68.2±68%
  nH ± SEM (Hill coefficient), glycine activation: 1.1±0.2
[1]; [3]
  Rise time ± SEM: 6.6 ± 2.5 ms
[1]; saturating glycine 1 mM
  Mean current amplitude ± SEM: 1122±765 pA
[2]
  Current amplitude [% of mean WT current amplitude] ± SEM: 32.0±18%
  nH ± SEM (Hill coefficient), glycine activation: 1.0±0.5
[2]; [3]
  Rise time ± SEM: 14.9 ± 7.7 ms
[2]; saturating glycine 10 mM
  Mean current amplitude ± SEM: 526±97 pA
